For data set [1] the following is noted: compared to QS-21; cited from earlier work.
The nature of data set [2]: Solubility in water. It is filed as physicochemical.
Data set [3] is described as follows: TQL-1055 choline salt and free acid ethanol solubility. In kind it is physicochemical. The settings on record: 100% ethanol, 37 °C, organic solvent or mixture, thermodynamic from solid, solubility in 100% ethanol, vortex mixed, sonicated at 37° C. for five minutes. As for the experimental part:
An experiment was conducted to determine the solubility of TQL-1055 choline salt and TQL-1055 free acid in ethanol. Several samples were prepared, each containing either TQL-1055 choline salt or TQL-1055 free acid dissolved in a 100% ethanol solution at a concentration of 4 mg/ml. All samples were mixed using a vortex mixer and subsequently sonicated at 37° C. for five minutes. Neither the TQL-1055 choline salt nor the TQL-1055 free acid were fully dissolved at 4 mg/ml. Samples were then diluted to 3.5 mg/ml, 3 mg/ml, 2.5 mg/ml, or 2 mg/ml and re-sonicated. As depicted in FIGS. 16-18, TQL-1055 choline salt was completely dissolved at a concentration of 3 mg/ml, whereas TQL-1055 free acid was completely dissolved at a concentration of 2 mg/ml. Accordingly, TQL-1055 choline salt is soluble in 100% ethanol up to concentrations of approximately 3 mg/ml, whereas TQL-1055 free acid is soluble in 100% ethanol up to concentrations of approximately 2 mg/ml.

Data set [4] in a line: Dynamic vapor sorption (DVS) / humidity-dependent form stability. It is filed as physicochemical. As for the experimental part: Automated vapor sorption (VS) data were collected on a Surface Measurement System DVS Intrinsic instrument. Samples were not dried prior to analysis. Sorption and desorption data were collected over a range from 5% to 95% RH at 10% RH increments under a nitrogen purge. The equilibrium criterion used for analysis was less than 0.0100% weight change in 5 minutes with a maximum equilibration time of 3 hours. Data were not corrected for the initial moisture content of the samples.

Setting [5] is: from 5 to 65% relative humidity.

Where a name gives a salt, the structure may show the parent alone.

For `CC1O[C@@H](OC2C(O)[C@@H](NC(=O)CCCCCCCCCCC(=O)O)C(CO)O[C@H]2OC(=O)[C@]23CCC(C)(C)CC2C2=CCC4C5(C)CC[C@H](O)[C@](C)(C=O)[C@@H]5CC[C@]4(C)[C@]2(C)CC3O)C(O)C(O)[C@H]1O[C@@H]1OC[C@@H](O)C(O)C1O` (some centres unmarked) [Compound I-4], in data set [1], the “efficacy as compared to the natural product” value is listed as “improved efficacy” and the “toxicity as compared to the natural product” value was “reduced toxicity”. The “solubility in water at physiological pH” value in data set [2] (physiological pH) is given as “poor solubility”. Further, the solubility (in general, how much of the substance goes into solution per volume) at 5 min in data set [3] is roughly 2000 µg/mL.
On to `CC1O[C@@H](OC2C(O)[C@@H](NC(=O)CCCCCCCCCCC(=O)O)C(CO)O[C@H]2OC(=O)[C@]23CCC(C)(C)CC2C2=CCC4C5(C)CC[C@H](O)C(C)(C=O)C5CCC4(C)C2(C)CC3O)C(O)C(O)[C@H]1O[C@@H]1OC[C@@H](O)C(O)C1O` (some centres unmarked) [Form A], for which, in data set [2], the solubility is greater than 6000 µg/mL. The “DVS additional weight gain” value in data set [4] (above 65% up to 95% relative humidity) is 14%. Also, in data set [4] (setting [5]), the DVS weight gain is reported as 5% and the “water gain equivalent to DVS weight gain” value is listed as roughly 3.5 mol/mol. In addition, the “DVS weight loss on desorption” value in data set [4] (from 95 to 5% relative humidity) is given as 19%. Besides, the “relative humidity above which the form converts to higher hydrate Choline Material B” value in data set [4] (relative humidity) is “above 65%”.
In the case of `CC1O[C@@H](OC2C(O)[C@@H](NC(=O)CCCCCCCCCCC(=O)O)C(CO)O[C@H]2OC(=O)[C@]23CCC(C)(C)CC2C2=CCC4C5(C)CC[C@H](O)C(C)(C=O)C5CCC4(C)C2(C)CC3O)C(O)C(O)[C@H]1O[C@@H]1OC[C@@H](O)C(O)C1O` (some centres unmarked) [TQL-1055 choline salt], the solubility at 5 min in data set [3] is roughly 3000 µg/mL.
